Reference: the Kinase Knowledgebase extract (Sharma et al. 2016)

What was measured:
Test in all cases: Enzyme Assay
PIK3CG (human) = PIK3CG (human) (UniProt P48736)
PIK3CB (Human) = PIK3CB (Human) (UniProt P42338)
PIK3CD (Human) = PIK3CD (Human) (UniProt O00329)
Chain of PIK3CD (Human) (O00329 whole entry, looked up): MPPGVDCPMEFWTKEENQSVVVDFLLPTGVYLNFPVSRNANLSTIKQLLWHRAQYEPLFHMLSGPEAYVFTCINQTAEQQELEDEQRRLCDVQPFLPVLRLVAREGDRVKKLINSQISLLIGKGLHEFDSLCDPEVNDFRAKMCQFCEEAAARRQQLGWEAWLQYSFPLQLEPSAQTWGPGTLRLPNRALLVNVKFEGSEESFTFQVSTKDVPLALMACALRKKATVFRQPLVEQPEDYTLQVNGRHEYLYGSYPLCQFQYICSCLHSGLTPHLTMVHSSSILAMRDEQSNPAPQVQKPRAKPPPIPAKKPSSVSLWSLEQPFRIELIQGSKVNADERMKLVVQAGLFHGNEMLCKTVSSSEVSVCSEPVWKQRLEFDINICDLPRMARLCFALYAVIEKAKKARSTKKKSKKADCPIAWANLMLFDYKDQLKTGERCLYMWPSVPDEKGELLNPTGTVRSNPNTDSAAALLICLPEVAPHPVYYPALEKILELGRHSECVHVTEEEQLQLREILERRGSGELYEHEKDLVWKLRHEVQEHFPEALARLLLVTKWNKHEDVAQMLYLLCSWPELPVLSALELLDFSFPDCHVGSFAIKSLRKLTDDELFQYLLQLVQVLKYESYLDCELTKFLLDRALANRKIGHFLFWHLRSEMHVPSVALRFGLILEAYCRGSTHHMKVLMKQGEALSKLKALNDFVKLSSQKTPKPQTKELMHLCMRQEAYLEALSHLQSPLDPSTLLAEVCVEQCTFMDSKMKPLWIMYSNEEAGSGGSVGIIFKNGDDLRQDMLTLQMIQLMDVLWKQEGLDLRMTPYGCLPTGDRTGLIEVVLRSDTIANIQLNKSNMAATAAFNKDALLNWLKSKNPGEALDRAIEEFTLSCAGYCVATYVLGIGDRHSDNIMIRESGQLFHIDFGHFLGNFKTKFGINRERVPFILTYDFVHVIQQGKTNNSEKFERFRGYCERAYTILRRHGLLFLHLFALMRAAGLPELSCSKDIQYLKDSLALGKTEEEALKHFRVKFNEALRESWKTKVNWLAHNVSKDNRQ

Chain of PIK3CG (human) (P48736 whole entry, looked up): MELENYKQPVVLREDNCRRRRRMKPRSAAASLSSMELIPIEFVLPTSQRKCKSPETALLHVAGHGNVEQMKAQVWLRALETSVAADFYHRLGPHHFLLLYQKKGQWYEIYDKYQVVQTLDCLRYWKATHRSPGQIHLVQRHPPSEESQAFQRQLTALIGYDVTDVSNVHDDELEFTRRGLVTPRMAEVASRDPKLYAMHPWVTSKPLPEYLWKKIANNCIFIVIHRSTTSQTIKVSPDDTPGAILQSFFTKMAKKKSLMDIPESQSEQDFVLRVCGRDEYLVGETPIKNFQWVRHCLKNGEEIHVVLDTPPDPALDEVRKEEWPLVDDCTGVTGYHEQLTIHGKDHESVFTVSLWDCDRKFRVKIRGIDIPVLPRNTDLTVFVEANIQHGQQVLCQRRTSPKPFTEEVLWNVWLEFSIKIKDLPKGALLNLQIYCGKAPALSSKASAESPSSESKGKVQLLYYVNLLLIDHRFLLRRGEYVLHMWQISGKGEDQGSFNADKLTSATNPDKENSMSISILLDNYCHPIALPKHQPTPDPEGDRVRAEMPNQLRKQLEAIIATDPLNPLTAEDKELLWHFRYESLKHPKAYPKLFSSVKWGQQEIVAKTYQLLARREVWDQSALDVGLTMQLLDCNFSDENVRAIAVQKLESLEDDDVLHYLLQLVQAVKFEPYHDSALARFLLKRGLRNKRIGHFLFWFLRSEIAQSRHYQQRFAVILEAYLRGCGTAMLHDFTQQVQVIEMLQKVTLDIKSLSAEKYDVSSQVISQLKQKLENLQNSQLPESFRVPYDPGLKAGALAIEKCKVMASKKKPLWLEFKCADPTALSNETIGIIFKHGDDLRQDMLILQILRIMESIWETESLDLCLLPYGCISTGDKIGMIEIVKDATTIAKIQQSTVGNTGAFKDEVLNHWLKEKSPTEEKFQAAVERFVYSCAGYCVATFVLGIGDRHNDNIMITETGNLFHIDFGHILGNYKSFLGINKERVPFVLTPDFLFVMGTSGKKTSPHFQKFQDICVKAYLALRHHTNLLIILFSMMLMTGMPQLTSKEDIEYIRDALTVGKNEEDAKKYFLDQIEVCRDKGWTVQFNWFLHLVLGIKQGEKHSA
Chain of PIK3CB (Human) (P42338 whole entry, looked up): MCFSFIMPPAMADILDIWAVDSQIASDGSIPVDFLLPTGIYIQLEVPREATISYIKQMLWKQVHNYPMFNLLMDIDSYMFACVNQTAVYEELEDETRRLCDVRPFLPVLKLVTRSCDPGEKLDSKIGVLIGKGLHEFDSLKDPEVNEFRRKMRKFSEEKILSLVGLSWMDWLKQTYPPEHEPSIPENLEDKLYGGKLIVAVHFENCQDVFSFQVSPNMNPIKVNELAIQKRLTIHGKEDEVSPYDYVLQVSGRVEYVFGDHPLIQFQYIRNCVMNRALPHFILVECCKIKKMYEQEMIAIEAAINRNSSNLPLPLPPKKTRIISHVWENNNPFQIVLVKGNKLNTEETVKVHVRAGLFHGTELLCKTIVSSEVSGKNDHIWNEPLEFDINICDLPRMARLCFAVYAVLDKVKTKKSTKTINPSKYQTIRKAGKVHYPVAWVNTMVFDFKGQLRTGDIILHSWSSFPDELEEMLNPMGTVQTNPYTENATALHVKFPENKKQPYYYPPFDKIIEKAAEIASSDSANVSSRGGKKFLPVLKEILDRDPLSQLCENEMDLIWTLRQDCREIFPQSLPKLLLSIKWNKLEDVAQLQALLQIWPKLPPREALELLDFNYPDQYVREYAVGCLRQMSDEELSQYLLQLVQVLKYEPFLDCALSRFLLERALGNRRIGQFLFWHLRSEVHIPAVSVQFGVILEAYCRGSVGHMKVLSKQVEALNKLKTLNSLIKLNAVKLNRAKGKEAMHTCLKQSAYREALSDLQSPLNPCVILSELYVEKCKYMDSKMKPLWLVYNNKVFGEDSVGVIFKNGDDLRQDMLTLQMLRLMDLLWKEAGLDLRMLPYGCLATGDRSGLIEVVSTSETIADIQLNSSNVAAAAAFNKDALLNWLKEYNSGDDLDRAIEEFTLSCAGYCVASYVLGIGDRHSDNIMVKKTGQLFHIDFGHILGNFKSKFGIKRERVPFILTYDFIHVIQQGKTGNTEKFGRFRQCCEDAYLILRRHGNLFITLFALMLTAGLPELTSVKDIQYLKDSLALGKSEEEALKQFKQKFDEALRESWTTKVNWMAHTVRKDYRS

Row | SMILES | IC50 (PIK3CG (human)) [nM] | IC50 (PIK3CB (Human)) [nM] | IC50 (PIK3CD (Human)) [nM]
1 | C[C@H](Nc1nc(N)nc(N)c1Cl)c1nc2c(Cl)ccc(Cl)c2c(=O)n1-c1cnc(N)cn1 | > 10000 |  | 
2 | Nc1cnc(-n2c([C@@H](Nc3ncnc(N)c3Cl)C3CC3)nc3c(Cl)ccc(Cl)c3c2=O)cn1 | > 10000 | 1100 | 26
3 | C[C@H](Nc1ncnc(N)c1Cl)c1nc2cccc(Cl)c2c(=O)n1-c1cnc(N)cn1 | > 10000 | 360 | 54
4 | C[C@H](Nc1ncnc(N)c1C#N)c1nc2c(F)ccc(Cl)c2c(=O)n1-c1cnc(N)cn1 | > 10000 |  | 
5 | C[C@H](Nc1nc(N)nc(N)c1Cl)c1nc2c(F)cc(F)cc2c(=O)n1-c1cnc(N)cn1 | > 10000 | 530 | 780
6 | C[C@H](Nc1nc(N)nc(N)c1Cl)c1nc2c(F)ccc(Cl)c2c(=O)n1-c1cnc(N)cn1 | > 10000 |  | 
7 | C[C@H](Nc1ncnc2[nH]nnc12)c1nc2c(F)cccc2c(=O)n1-c1cnc(N)cn1 | > 10000 | > 10000 | 

The remaining lines, values ahead:

Row | IC50 (PIK3CG (human)) [nM] | IC50 (PIK3CB (Human)) [nM] | IC50 (PIK3CD (Human)) [nM] | SMILES
8 | > 10000 | 720 |  | Nc1cnc(-n2c([C@@H](Nc3ncnc(N)c3Cl)C3CC3)nc3cccc(Cl)c3c2=O)cn1
9 | > 10000 |  |  | Nc1cnc(-n2c([C@@H](Nc3nc(N)nc(N)c3Cl)C3CC3)nc3c(Cl)ccc(Cl)c3c2=O)cn1
10 | > 10000 | 200 | 340 | C[C@H](Nc1nc(N)nc(C(F)F)c1C#N)c1nc2c(Cl)cc(F)cc2c(=O)n1-c1cnc(N)cn1
11 | > 10000 | 570 | 500 | C[C@H](Nc1nc(N)nc(N)c1Cl)c1nc2c(Cl)cc(F)cc2c(=O)n1-c1cnc(N)cn1
12 | > 10000 |  |  | Nc1cnc(-n2c([C@@H](Nc3nc(N)nc(N)c3Cl)C3CC3)nc3cccc(Cl)c3c2=O)cn1
13 | > 10000 |  |  | C[C@H](Nc1ncnc2occc12)c1nc2c(F)ccc(Cl)c2c(=O)n1-c1cnc(N)cn1
